Laboratory results as given in the supplement of paper PMC10307832.

Tests used:
Test in all cases: relative viability (nuclei count vs DMSO), 5 days (fraction); higher = more cells survive
[1] = compound: Cc1ccc2nc(NCCN)c3ncc(C)n3c2c1 + Nc1ncn([C@H]2C[C@H](O)[C@@H](CO)O2)c(=O)n1 [Decitabine] (partner 2 µM)
Outline: (§1)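 Relative viability was taken as the ratio of nuclei in treated wells to nuclei in vehicle wells. Lung cancer cell lines in 1536-well plates received compounds by pin tool one day after seeding, either one drug alone or a fixed anchor-drug dose plus five library-drug doses (not always all listed) in √10 steps. Nuclei were counted on 4× images after 5 days of treatment, and values are medians of duplicate plates.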

[2] = compound: Cc1ccc2nc(NCCN)c3ncc(C)n3c2c1 + N=C(N)NC(=N)NCCc1ccccc1 [Phenformin] (partner 250 µM)
Outline: as §1

[3] = compound: Cc1ccc2nc(NCCN)c3ncc(C)n3c2c1 + CC(=O)Nc1cccc(-n2c(=O)n(C3CC3)c(=O)c3c(Nc4ccc(I)cc4F)n(C)c(=O)c(C)c32)c1 [Trametinib] (partner 0.02 µM)
Outline: as §1

[4] = compound: O=C(/C=C/c1ccccc1)NC(NC(=S)Nc1cccc2cccnc12)C(Cl)(Cl)Cl [Salubrinal] + CC1(C)CCC(c2ccc(Cl)cc2)=C(CN2CCN(c3ccc(C(=O)NS(=O)(=O)c4ccc(N[C@H](CCN5CCOCC5)CSc5ccccc5)c(S(=O)(=O)C(F)(F)F)c4)cc3)CC2)C1 [Navitoclax] (partner 0.5 µM)
Outline: as §1

Cell Line	relative viability ([1]; first compound 0.04 µM)	relative viability ([1]; first compound 0.1265 µM)	relative viability ([1]; first compound 0.4 µM)	relative viability ([1]; first compound 1.265 µM)	relative viability ([1]; first compound 4 µM)	relative viability ([2]; first compound 0.04 µM)	relative viability ([2]; first compound 0.1265 µM)	relative viability ([2]; first compound 0.4 µM)	relative viability ([2]; first compound 1.265 µM)	relative viability ([2]; first compound 4 µM)	relative viability ([3]; first compound 0.04 µM)	relative viability ([3]; first compound 0.1265 µM)	relative viability ([3]; first compound 0.4 µM)	relative viability ([3]; first compound 1.265 µM)	relative viability ([3]; first compound 4 µM)	relative viability ([4]; first compound 0.08 µM)	relative viability ([4]; first compound 0.253 µM)	relative viability ([4]; first compound 0.8 µM)	relative viability ([4]; first compound 2.53 µM)	relative viability ([4]; first compound 8 µM)
NCI-H522	0.573	0.795	0.765	0.62	0.675	0.695	0.708	0.622	0.689	0.543	0.641	0.753	0.791	0.719	0.684	–	–	–	–	–
HCC-15	0.624	0.693	0.474	0.598	0.522	0.464	0.501	0.48	0.429	0.379	0.425	0.373	0.364	0.356	0.381	0.785	0.602	0.722	0.771	0.689
A-427	0.557	0.561	0.547	0.58	0.539	0.388	0.308	0.35	0.265	0.296	0.725	0.731	0.705	0.695	0.775	0.942	1.01	1.08	0.886	0.926
NCI-H2228	–	–	–	–	–	0.29	0.525	0.452	0.284	0.244	0.549	0.501	0.522	0.519	0.424	1.43	0.661	0.888	1.07	0.767
NCI-H1734	0.464	0.5	0.458	0.501	0.511	0.425	0.417	0.355	0.38	0.389	0.719	0.632	0.755	0.638	0.707	0.938	0.755	0.964	0.858	0.745
PC-14	0.227	0.237	0.247	0.179	0.148	0.535	0.69	0.431	0.607	0.254	0.779	0.706	0.742	0.647	0.327	1.05	1.01	1	1.07	0.864
NCI-H1915	0.265	0.248	0.267	0.253	0.238	0.359	0.384	–	0.377	0.359	0.304	0.297	0.28	0.296	0.294	0.774	0.778	0.83	0.759	0.774
NCI-H1666	0.753	0.719	0.692	0.792	0.647	0.574	0.573	0.521	0.495	0.535	0.907	0.796	0.773	0.863	0.8	0.979	0.992	1.24	0.93	0.878
HCC-366	0.349	0.362	0.302	0.357	0.34	0.588	0.609	0.638	0.606	0.537	0.385	0.395	0.369	0.336	0.284	1.27	0.871	0.985	0.975	0.971
NCI-H2170	0.473	0.442	0.433	0.448	0.461	0.402	0.408	0.435	0.424	0.446	0.892	0.915	0.871	0.83	0.921	0.662	0.581	0.631	0.598	0.503
SW 1573	0.593	0.497	0.547	0.637	0.37	0.371	0.368	0.395	0.424	0.231	0.584	0.6	0.602	0.612	0.306	1.02	1	0.937	0.929	1.01
NCI-H661	0.559	0.562	0.56	0.513	0.552	0.26	0.375	0.254	0.293	0.308	0.579	0.57	0.567	0.574	0.544	–	–	–	–	–
PC-3 [JPC-3]	0.831	0.889	0.854	0.846	0.761	0.503	0.475	0.459	0.497	0.423	0.656	0.738	0.62	0.601	0.529	0.859	0.768	0.846	0.766	0.766
NCI-H2342	0.688	0.73	0.799	0.737	0.72	0.592	0.816	0.636	0.581	0.559	0.822	0.805	0.821	0.917	0.849	–	–	–	–	–
